Results published in ChEMBL document CHEMBL1201862, “PubChem BioAssay data set” (2004).
Blank lines part the entries; values can stand above or below the compound they belong to. Activity calls are given as the source filed them.

Assays:
[1] = biological target: DNA repair and recombination protein RAD54-like (Homo sapiens, UniProt Q92698); assay: RAD54 Holliday junction migration blockers – biochemical, fluorescence, cherry-picked samples, dose series, confirmation (AID 651657); format: functional
[2] = biological target: T1, DNA repair protein RAD52 homolog (Homo sapiens, UniProt P43351); format: functional, biochemical
T1 sequence (P43351 whole entry): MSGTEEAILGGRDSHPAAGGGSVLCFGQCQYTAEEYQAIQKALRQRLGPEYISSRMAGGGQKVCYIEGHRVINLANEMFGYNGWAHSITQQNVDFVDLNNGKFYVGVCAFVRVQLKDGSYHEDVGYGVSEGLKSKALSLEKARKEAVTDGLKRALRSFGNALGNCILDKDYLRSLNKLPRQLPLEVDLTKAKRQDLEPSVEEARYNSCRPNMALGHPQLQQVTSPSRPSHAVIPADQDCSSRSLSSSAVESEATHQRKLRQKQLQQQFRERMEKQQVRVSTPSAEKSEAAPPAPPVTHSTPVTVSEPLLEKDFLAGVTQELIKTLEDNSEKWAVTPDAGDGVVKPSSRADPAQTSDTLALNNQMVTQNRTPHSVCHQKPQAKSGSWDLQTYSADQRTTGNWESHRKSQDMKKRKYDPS

[3] = biological target: SWI/SNF-related matrix-associated actin-dependent regulator of chromatin subfamily A member 2 (Homo sapiens, UniProt P51531); assay: Luminescence-based cell-based high throughput dose response assay to identify activators of the function of SWI/SNF related, matrix associated, actin dependent regulator of chromatin, subfamily a, member 2 (SMARCA2, BRM).; format: functional
[4] = Counterscreen for activators of the function of SWI/SNF related, matrix associated, actin dependent regulator of chromatin, subfamily a, member 2 (SMARCA2, BRM): Luminescence-based cell-based high throughput dose response assay to identify non-selective compounds using the VP16 reporter assay.; format: functional
HeLa = assay: viability loss in HeLa cells – cell-based, ATP luminescence, cherry-pick samples, cytotoxicity control, dose response (AID 687004); format: functional; conditions: Homo sapiens
[5] = biological target: Hepatocyte nuclear factor 4-alpha (Homo sapiens, UniProt P41235); format: functional, cell-based;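 further: biochemical luminescence-based dose-response counterscreen measuring inhibition of HNF4 dimerization, run alongside a screen for blockers of ABHD5–perilipin-5 interaction; split luciferase complementation of HNF4 fusion proteins in cell lysate measuring dimerization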
[6] = inhibition of ARNT PAS-B/TACC3 complex formation – biochemical, AlphaScreen, cherry-picked samples, confirmation (AID 651703); format: functional, Homo sapiens;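 further: His-tagged ARNT PAS-B domain paired with GST-TACC3 E629A dimer coactivator fragment; potency of inhibitors that break up the complex and lower AlphaScreen signal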
[7] = biological target: T2, Corticotropin-releasing factor receptor 2/Corticotropin-releasing factor-binding protein (Homo sapiens, UniProt P24387+Q13324); assay: Dose Response confirmation of uHTS hits for small molecule antagonists of the CRF-binding protein and CRF-R2 receptor complex.; format: functional; conditions: read-out: IC50_Mean
T2 sequence (Q13324 whole entry): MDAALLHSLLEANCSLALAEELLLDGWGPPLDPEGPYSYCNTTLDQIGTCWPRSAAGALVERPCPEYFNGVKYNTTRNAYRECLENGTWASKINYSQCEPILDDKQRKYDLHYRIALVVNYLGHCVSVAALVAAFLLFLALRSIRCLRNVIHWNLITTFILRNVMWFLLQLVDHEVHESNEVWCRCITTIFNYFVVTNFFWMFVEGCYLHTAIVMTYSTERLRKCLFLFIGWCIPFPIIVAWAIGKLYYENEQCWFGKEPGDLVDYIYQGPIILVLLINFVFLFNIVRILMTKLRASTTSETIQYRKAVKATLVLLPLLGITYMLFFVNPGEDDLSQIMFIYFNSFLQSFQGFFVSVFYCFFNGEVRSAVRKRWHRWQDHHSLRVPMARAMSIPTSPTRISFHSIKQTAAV
T2 sequence (P24387 whole entry): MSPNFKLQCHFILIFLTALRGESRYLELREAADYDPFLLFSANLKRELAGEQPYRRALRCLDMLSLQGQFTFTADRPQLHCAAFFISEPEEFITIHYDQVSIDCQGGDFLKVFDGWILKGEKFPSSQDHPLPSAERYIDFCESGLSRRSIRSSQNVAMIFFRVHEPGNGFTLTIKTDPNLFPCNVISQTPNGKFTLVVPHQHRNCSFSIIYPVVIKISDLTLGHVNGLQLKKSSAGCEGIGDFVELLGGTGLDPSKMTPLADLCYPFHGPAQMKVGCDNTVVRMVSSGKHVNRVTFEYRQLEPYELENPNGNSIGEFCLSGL

[8] = biological target: T2, Corticotropin-releasing factor receptor 2/Corticotropin-releasing factor-binding protein; assay: activators of CRF receptor 2 with binding protein – uHTS hits, confirmation (AID 602473); format: functional; conditions: read-out: EC50_Mean
[9] = blockers of CRF-binding protein–CRF-R2 complex – cell-based, uHTS hits, 384-well, dose response (AID 651639); format: functional, Homo sapiens; conditions: read-out: IC50_Mean
INS1 = assay: INS-1E survival protection against cytokine death – cell-based, luminescence, retest, dose response (AID 449756); format: functional; conditions: Rattus norvegicus;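 further: cell death triggered by IL-1 beta plus TNF-alpha plus IFN-gamma mixture; protective hits raise ATP signal compared with cytokine alone wells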
[10] = A549 cell cytotoxicity, dose response, cytotoxicity control, plate reader, cherry-pick, antagonist series (AID 743412); format: functional, cell-based
[11] = toxicity toward HepG2 liver cells – cell-based, plate reader, cherry-pick, antagonist series, cytotoxicity control, dose response (AID 743416); format: functional
[12] = blockers of bursicon-stimulated LGR2 cAMP reporter – cell-based, HEK293, CRE-luciferase reporter, cherry pick, set 2, dose response (AID 743343); format: functional;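 further: transfected cells were stimulated with diluted bursicon conditioned medium after compound addition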
[13] = blockade of melanocortin 4 receptor signaling – cell-based, plate reader, cherry pick, counter-screen for LGR2 antagonist project, dose response (AID 743444); format: functional;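 further: transfected HEK 293 cells stimulated with alpha-MSH peptide; potency of inhibitors of the alpha-MSH evoked signal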
[14] = viability loss in HEK293 cells – cell-based, plate reader, cherry-picked samples, cytotoxicity control, dose response (AID 743446); format: functional
Mu-type opioid receptor = Mu-type opioid receptor (Homo sapiens, UniProt P35372); format: functional, cell-based;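 further: U2OS cells with beta-arrestin recruitment to OPRM1 by beta-gal complementation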
[15] = biological target: 5-hydroxytryptamine receptor 2A (Mus musculus, UniProt P35363); format: functional, cell-based;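 further: CHO-K1 cells with tagged receptor and beta-arrestin; agonist potency measured as compound-induced activation of the receptor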
Melanocortin receptor 4 = Melanocortin receptor 4 (Homo sapiens, UniProt P32245); assay: inhibitors of MC4R cAMP signaling – cell-based, TR-FRET, biased antagonists, dose response (AID 602298); format: functional;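 further: antagonist potency against agonist-stimulated cAMP production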
[16] = cAMP pathway inhibition in counterscreen cell line – TR-FRET cAMP detection, counter-screen for MC4R biased antagonist project, dose response (AID 602305); format: functional, cell-based;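 further: U2OS cells stimulated with forskolin near its EC80 as the cAMP inducer; potency is for inhibition of forskolin-stimulated cAMP signaling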

Sequence of SWI/SNF-related matrix-associated actin-dependent regulator of chromatin subfamily A member 2 (P51531 whole entry): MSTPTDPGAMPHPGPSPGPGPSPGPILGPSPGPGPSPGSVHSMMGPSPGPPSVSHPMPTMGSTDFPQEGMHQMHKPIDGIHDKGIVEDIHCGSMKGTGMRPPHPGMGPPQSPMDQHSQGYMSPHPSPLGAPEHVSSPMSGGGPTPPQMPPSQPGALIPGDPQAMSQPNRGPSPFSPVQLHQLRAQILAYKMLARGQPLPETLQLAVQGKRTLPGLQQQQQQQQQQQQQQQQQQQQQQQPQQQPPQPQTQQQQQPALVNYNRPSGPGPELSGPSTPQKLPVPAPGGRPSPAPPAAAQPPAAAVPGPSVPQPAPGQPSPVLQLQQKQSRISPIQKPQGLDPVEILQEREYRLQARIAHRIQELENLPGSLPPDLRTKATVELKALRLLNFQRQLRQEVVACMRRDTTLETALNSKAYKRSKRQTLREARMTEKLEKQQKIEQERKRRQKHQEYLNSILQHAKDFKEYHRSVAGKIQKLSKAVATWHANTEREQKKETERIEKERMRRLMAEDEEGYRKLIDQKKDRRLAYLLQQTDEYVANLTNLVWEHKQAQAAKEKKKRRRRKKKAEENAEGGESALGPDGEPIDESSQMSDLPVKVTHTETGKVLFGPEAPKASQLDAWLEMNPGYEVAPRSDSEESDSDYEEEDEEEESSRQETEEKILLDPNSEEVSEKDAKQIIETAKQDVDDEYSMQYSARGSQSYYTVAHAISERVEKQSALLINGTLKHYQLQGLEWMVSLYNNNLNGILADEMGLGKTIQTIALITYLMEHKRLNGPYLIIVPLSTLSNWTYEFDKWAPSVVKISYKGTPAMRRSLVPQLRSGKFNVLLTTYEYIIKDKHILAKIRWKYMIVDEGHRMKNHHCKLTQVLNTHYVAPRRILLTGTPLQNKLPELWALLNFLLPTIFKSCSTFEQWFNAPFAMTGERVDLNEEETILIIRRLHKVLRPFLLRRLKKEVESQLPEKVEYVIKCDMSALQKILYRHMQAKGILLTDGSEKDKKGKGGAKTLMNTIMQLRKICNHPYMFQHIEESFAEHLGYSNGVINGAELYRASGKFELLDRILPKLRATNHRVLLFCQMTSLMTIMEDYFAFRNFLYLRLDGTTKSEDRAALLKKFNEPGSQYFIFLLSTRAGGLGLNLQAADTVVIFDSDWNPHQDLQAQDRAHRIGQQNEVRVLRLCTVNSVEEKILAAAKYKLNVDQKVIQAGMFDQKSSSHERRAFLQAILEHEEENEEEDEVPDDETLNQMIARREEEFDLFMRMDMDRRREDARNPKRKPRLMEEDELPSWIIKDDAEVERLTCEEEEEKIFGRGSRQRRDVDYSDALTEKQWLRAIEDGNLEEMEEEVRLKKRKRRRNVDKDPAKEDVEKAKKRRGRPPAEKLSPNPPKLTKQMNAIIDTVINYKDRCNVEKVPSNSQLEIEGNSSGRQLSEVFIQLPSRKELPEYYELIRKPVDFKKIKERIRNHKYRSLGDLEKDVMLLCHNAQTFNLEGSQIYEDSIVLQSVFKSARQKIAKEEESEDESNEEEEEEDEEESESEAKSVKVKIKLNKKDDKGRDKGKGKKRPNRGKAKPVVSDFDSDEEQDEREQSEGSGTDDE
Sequence of Hepatocyte nuclear factor 4-alpha (P41235 whole entry, the tested form may be a part): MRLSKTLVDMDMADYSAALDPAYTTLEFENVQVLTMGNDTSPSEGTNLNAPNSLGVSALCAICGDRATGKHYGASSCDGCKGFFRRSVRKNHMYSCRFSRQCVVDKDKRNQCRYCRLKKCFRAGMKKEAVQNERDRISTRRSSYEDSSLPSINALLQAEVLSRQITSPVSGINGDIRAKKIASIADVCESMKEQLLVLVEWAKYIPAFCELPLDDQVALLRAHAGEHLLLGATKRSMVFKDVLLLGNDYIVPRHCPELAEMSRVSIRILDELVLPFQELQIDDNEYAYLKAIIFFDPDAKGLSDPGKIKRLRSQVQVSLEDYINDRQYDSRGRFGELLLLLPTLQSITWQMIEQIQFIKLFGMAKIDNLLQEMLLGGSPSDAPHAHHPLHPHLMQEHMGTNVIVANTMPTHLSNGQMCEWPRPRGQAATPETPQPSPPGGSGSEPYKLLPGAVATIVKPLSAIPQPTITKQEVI
Sequence of DNA repair and recombination protein RAD54-like (Q92698 whole entry): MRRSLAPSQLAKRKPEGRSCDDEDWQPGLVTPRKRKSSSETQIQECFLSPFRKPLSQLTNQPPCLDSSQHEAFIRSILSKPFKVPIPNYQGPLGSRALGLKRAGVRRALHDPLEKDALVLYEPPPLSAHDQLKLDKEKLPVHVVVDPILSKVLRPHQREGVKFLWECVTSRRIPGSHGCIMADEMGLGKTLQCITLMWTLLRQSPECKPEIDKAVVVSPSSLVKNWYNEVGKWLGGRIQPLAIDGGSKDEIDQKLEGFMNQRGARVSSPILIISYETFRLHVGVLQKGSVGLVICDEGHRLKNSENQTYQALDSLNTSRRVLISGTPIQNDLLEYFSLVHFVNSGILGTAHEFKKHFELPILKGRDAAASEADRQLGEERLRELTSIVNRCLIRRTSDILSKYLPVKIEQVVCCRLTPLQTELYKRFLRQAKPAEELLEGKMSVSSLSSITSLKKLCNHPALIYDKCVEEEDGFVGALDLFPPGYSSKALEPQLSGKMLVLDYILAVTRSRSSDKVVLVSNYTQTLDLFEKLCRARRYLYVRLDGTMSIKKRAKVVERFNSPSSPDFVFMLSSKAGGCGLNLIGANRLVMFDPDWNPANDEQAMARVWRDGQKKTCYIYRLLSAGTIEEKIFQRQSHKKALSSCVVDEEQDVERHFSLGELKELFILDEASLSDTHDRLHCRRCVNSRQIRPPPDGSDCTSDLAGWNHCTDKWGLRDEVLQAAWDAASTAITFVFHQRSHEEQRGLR
Sequence of Mu-type opioid receptor (P35372 whole entry): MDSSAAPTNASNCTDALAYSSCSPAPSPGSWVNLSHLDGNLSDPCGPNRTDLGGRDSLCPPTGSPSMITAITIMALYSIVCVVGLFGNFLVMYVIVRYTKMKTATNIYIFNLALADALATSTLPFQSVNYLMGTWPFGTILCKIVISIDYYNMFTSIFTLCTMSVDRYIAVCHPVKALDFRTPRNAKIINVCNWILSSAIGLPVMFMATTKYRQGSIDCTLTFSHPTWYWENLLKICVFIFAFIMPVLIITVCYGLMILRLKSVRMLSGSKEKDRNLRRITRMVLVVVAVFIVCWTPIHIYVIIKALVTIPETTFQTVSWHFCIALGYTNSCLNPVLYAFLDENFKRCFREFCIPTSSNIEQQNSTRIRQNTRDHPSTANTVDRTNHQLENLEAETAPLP
Sequence of 5-hydroxytryptamine receptor 2A (P35363 whole entry): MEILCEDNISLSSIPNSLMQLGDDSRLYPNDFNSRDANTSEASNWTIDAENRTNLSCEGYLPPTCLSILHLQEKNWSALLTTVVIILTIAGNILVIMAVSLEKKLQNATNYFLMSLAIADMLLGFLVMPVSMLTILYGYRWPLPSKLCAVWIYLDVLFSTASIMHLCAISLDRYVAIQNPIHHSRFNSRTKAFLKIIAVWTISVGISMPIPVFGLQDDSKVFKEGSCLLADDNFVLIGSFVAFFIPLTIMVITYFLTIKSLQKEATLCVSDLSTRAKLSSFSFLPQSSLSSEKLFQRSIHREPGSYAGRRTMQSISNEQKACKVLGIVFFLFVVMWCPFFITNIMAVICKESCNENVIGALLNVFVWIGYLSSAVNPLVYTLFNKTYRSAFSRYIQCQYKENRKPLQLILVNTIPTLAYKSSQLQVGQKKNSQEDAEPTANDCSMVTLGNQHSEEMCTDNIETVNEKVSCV
Sequence of Melanocortin receptor 4 (P32245 whole entry): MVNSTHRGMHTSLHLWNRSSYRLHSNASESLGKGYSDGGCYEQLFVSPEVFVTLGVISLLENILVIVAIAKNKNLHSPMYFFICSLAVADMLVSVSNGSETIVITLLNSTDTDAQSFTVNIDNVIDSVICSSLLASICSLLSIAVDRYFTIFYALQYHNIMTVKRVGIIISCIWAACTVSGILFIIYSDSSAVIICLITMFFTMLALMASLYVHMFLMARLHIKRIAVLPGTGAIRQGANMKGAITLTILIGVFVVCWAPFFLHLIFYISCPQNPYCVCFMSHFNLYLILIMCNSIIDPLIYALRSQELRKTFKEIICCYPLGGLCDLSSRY

AC50 [1]: 11.5 µM (active)
AC50 [2]: 4.79 µM (active)
Compound: COc1ccc(-c2cc3nc(NCCCN(C)C)n(C)c(=O)c3s2)cc1OC

Compound: O=C(CN1CCCCC1)Nc1c2c(nc3ccccc13)N(c1ccccc1)CC2
EC50 [3]: > 91.2 µM (inactive)
EC50 [4]: > 91.2 µM (inactive)

Compound: CC(C)CC#Cc1ccc2c(c1)O[C@@H](CN(C)C(=O)C1CCC1)[C@@H](C)CN([C@H](C)CO)S2(=O)=O
AC50 (HeLa): > 52 µM (inactive)

IC50 [5]: 25.1 µM (inactive)
Compound: CCCc1nc(C)c2c(=O)[nH]c(-c3cc(S(=O)(=O)N4CCN(CC)CC4)ccc3OCC)nn12

IC50 [5]: 5.5 µM (active)
Compound: CC(=O)Oc1ccc(C23c4ccccc4C2(OC(C)=O)c2cc(OC(C)=O)ccc23)cc1 (stereo not given)

Compound: Cc1nn2c(nc1=O)NNC2(C)C(C)(C)C (stereo not given)
AC50 [6]: 130 µM (active)

IC50 [7]: 13.6 µM (active)
EC50 [8]: > 53 µM (inactive)
IC50 [9]: > 20 µM (inactive)
Compound: CCOC(=O)C(NC(=O)CC(C)C)(Nc1sc(C)c(CC)c1C#N)C(F)(F)F (stereo not given)

Compound: c1ccc2c(NCCCN3CCOCC3)c3ccccc3nc2c1
AC50 (INS1): 2.33 µM (active)
EC50 [3]: > 3.38 µM (active)
EC50 [4]: > 91.2 µM (inactive)
AC50 [2]: 1.06 µM (active)
AC50 [10]: 3.28 µM (active)
AC50 [11]: 3.54 µM (active)
AC50 [12]: 21 µM (active)
AC50 [13]: 31.3 µM (active)
AC50 [14]: 3.16 µM (active)

Compound: CCCCNC(=O)CCC(=O)N1CCN(C(c2ccccc2)c2ccccc2)CC1
AC50 [6]: 81 µM (active)

EC50 (Mu-type opioid receptor): 92.5 µM (inactive)
EC50 [15]: 4.33 µM (active)
Compound: CC(C)[C@H](NC(=O)c1ccc(C(C)(C)C)cc1)C(=O)N1CCN(Cc2ccc3c(c2)OCO3)CC1

Compound: CC(NC(=O)COC(=O)CNS(=O)(=O)/C=C/c1ccccc1)c1ccccc1 (stereo not given)
IC50 (Melanocortin receptor 4): > 64.6 µM (inactive)
IC50 [16]: > 64.6 µM (inactive)
